Literature values as cited in patent US20220401366A1, “LONG ACTING NMDA ANTAGONISTS” (Consegna Pharma, Inc., priority 2019, published 2022).

Conditions: S-ketamine versus R-ketamine

Structure (SMILES): CN[C@]1(c2ccccc2Cl)CCCCC1=O [S-ketamine]
- potency relative to R-ketamine: twice as potent as R-ketamine
